Converted amounts (≈) assume the structure as drawn. Like-named read-outs stand apart in the source and are kept apart here.
Columns and labels:
Assay type in all cases: cell-based
[1] = test system: A549 (human non-small lung cell); test: SRB assay, in vitro antitumor effect against A549; details: Homo sapiens
Method: (§1) In vitro antitumor effect against human tumor cell lines.
(§2) b. 5×10^3 ~2×10^4 cells were added into each well of 96-well plate and cultured in 5% CO2 incubator, at 37° C., for 24 hours.
(§3) c. Each sample drug was dissolved in a little DMSO and diluted with the used medium to a prescribed concentration for experiments, wherein the final concentration of DMSO was controlled below 0.5%.
(§4) d. Medium of each well cultured for 24 hours as above b. was removed by aspiration. Each 200 μl of drug samples prepared in c. was added into each well and the wells were cultured for 48 hours. Tz(time zero) plates were collected at the point of time drugs were added.
(§5) e. According to the SRB assay method, cell fixing with TCA, staining with 0.4% SRB solution, washing with 1% acetic acid and elution of dye with 10 mM Tris solution were carried out on Tz plates and culture-ended plates, and then, OD values were measured at 520 nm.
(§6) a. Time zero(Tz) value was determined with measuring the SRB protein value at the point of time drugs were added.
(§7) b. Control value(C) was determined with the OD value of an well untreated with drug.
(§8) c. Drug-treated test value(T) was determined with the OD value of drug-treated well.
(§9) d. Effects of drugs were estimated with growth stimulation, net growth inhibition, net killing etc. calculated from Tz, C and T.
(§10) e. If T≥Tz, cellular response function was calculated by 100×(T-Tz)/(C-Tz), and if T<Tz, by 100×(T-Tz)/Tz.

SKOV-3 (human ovarian) = test: SRB assay, in vitro antitumor effect against SKOV-3; details: Homo sapiens; SK-OV-3, 48 hours; read-out: ED50 (the source's name)
Method: as §1, §2, §3, §4, §5, §6, §7, §8, §9, §10

SKMEL-2 (human melanoma) = test: SRB assay, in vitro antitumor effect against SKMEL-2; details: Homo sapiens; SK-MEL-2, 48 hours; read-out: ED50 (the source's name)
Method: as §1, §2, §3, §4, §5, §6, §7, §8, §9, §10

XF 498 (human CNS) = test: SRB assay, in vitro antitumor effect against XF 498; details: Homo sapiens, XF498; XF-498, 48 hours; read-out: ED50 (the source's name)
Method: as §1, §2, §3, §4, §5, §6, §7, §8, §9, §10

HCT-15 (human colon) = test: SRB assay, in vitro antitumor effect against HCT-15; details: Homo sapiens
Method: as §1, §2, §3, §4, §5, §6, §7, §8, §9, §10

[2] = A549, 48 hours, read-out: ED50 (the source's name)
[3] = HCT 15, 48 hours, read-out: ED50 (the source's name)

SMILES | IC50 [1, 2] | IC50 (SKOV-3 (human ovarian)) | IC50 (SKMEL-2 (human melanoma)) | IC50 (XF 498 (human CNS)) | IC50 (HCT-15 (human colon); [3]) | IC50 ([1]; A549, 48 h, read-out: ED50) | IC50 (HCT-15 (human colon); HCT-15, 48 h, read-out: ED50)
COc1nc(C)c(C(C)=O)cc1NC(=O)N1CCN(c2cc(C)cc(C)c2)CC1 [Example 47, 1-[(5-Acetyl-2-methoxy-6-methylpyridin-3-yl)aminocarbonyl]-4-(3,5-dimethylphenyl)piperazine] | 0.92 µg/mL (≈ 2.32 µM) | 0.62 µg/mL (≈ 1.56 µM) | 0.47 µg/mL (≈ 1.19 µM) | 0.64 µg/mL (≈ 1.61 µM) | 0.81 µg/mL (≈ 2.04 µM) |  | 
C=Cc1cc(NC(=O)N2CCN(c3cc(F)cc(F)c3)CC2)c(OC)nc1C [Example 75, 1-[(2-Methoxy-6-methyl-5-vinylpyridin-3-yl)aminocarbonyl]-4-(3,5-difluorophenyl)piperazine] | 0.19 µg/mL (≈ 0.489 µM) | 0.09 µg/mL (≈ 0.232 µM) | 0.09 µg/mL (≈ 0.232 µM) | 0.13 µg/mL (≈ 0.335 µM) | 0.12 µg/mL (≈ 0.309 µM) |  | 
COc1nc2ccccc2cc1NC(=O)N1CCN(c2cc(Cl)cc(Cl)c2)CC1 [Example 85, 1-[(2-Methoxyquinolin-3-yl)aminocarbonyl]-4-(3,5-dichlorolphenyl)piperazine] | 0.048 µg/mL (≈ 0.111 µM) | 0.117 µg/mL (≈ 0.271 µM) | 0.039 µg/mL (≈ 0.0904 µM) | 0.104 µg/mL (≈ 0.241 µM) | 0.1 µg/mL (≈ 0.232 µM) |  | 
COc1nc2ccccc2cc1NC(=O)N1CCN(c2cccc(Cl)c2)CC1 [Example 88, 1-[(2-Methoxyquinolin-3-yl)aminocarbonyl]-4-(3-chlorophenyl)piperazine] |  | 0.043 µg/mL (≈ 0.108 µM) | 0.02 µg/mL (≈ 0.0504 µM) | 0.009 µg/mL (≈ 0.0227 µM) |  | 0.014 µg/mL (≈ 0.0353 µM) | 0.011 µg/mL (≈ 0.0277 µM)
COc1nc2ccccc2cc1N(C)C(=O)N1CCN(c2cc(C)cc(C)c2)CC1 [Example 103, 1-[N-(2-Methoxyquinolin-3-yl)-N-methylaminocarbonyl]-4-(3,5-dimethylphenyl)piperazine] | 0.52 µg/mL (≈ 1.29 µM) | 0.46 µg/mL (≈ 1.14 µM) | 0.49 µg/mL (≈ 1.21 µM) | 0.36 µg/mL (≈ 0.89 µM) | 0.33 µg/mL (≈ 0.816 µM) |  | 

The next lines start with results.

IC50 [1, 2] | IC50 (SKOV-3 (human ovarian)) | IC50 (SKMEL-2 (human melanoma)) | IC50 (XF 498 (human CNS)) | IC50 (HCT-15 (human colon); [3]) | SMILES | IC50 ([1]; A549, 48 h, read-out: ED50) | IC50 (HCT-15 (human colon); HCT-15, 48 h, read-out: ED50)
0.21 µg/mL (≈ 0.49 µM) | 0.12 µg/mL (≈ 0.28 µM) | 0.08 µg/mL (≈ 0.187 µM) | 0.14 µg/mL (≈ 0.327 µM) | 0.16 µg/mL (≈ 0.373 µM) | COc1cc(OC)cc(N2CCN(C(=O)Nc3cc(C(C)=O)c(C)nc3OC)CC2)c1 [Example 46, 1-[(5-Acetyl-2-methoxy-6-methylpyridin-3-yl)amninocarbonyl]-4-(3,5-dimethoxyphenyl)piperazine] |  | 
0.47 µg/mL (≈ 1.06 µM) | 0.47 µg/mL (≈ 1.06 µM) | 0.64 µg/mL (≈ 1.44 µM) | 0.67 µg/mL (≈ 1.51 µM) | 0.71 µg/mL (≈ 1.6 µM) | COc1cc(OC)cc(N2CCN(C(=S)Nc3cc(C(C)=O)c(C)nc3OC)CC2)c1 [Example 53, 1-[(5-Acetyl-2-methoxy-6-methylpyridin-3-yl)aminothiocarbonyl]-4-(3,5-dimethoxyphenyl)piperazine] |  | 
0.04 µg/mL (≈ 0.0896 µM) | 0.1 µg/mL (≈ 0.224 µM) | 0.11 µg/mL (≈ 0.246 µM) | 0.03 µg/mL (≈ 0.0672 µM) | 0.07 µg/mL (≈ 0.157 µM) | COc1cc(OC)cc(N2CCN(C(=S)Nc3cc(C(C)O)c(C)nc3OC)CC2)c1 (centres unmarked) [Example 63, 1-{[5-(1-Hydroxyethyl)-2-methoxy-6-methylpyridin-3-yl]aminothiocarbonyl}-4-(3,5-dimethoxyphenyl)piperazine] |  | 
0.42 µg/mL (≈ 1.01 µM) | 0.56 µg/mL (≈ 1.35 µM) | 0.52 µg/mL (≈ 1.25 µM) | 0.23 µg/mL (≈ 0.555 µM) | 0.37 µg/mL (≈ 0.892 µM) | COc1nc(C)c(C(C)O)cc1NC(=S)N1CCN(c2cc(C)cc(C)c2)CC1 (centres unmarked) [Example 64, 1-{[5-(1-Hydroxyethyl)-2-methoxy-6-methylpyridin-3-yl]aminothiocarbonyl}-4-(3,5-dimethylphenyl)piperazine] |  | 
0.43 µg/mL (≈ 0.954 µM) | 0.41 µg/mL (≈ 0.91 µM) | 0.4 µg/mL (≈ 0.888 µM) | 0.52 µg/mL (≈ 1.15 µM) | 0.36 µg/mL (≈ 0.799 µM) | CCN(C(=O)N1CCN(c2cc(OC)cc(OC)c2)CC1)c1cc2ccccc2nc1OC [Example 99, 1-[N-Ethyl-N-(2-methoxyquinolin-3-yl)aminocarbonyl]-4-(3,5-dimethoxyphenyl)piperazine] |  | 
4.54 µg/mL (≈ 9.77 µM) | 3.02 µg/mL (≈ 6.5 µM) | 3.47 µg/mL (≈ 7.47 µM) | 0.66 µg/mL (≈ 1.42 µM) | 4.21 µg/mL (≈ 9.06 µM) | COc1cc(OC)cc(N2CCN(C(=O)N(c3cc4ccccc4nc3OC)C(C)C)CC2)c1 [Example 100] |  | 
0.47 µg/mL (≈ 1.07 µM) | 0.91 µg/mL (≈ 2.08 µM) | 0.86 µg/mL (≈ 1.96 µM) | 0.53 µg/mL (≈ 1.21 µM) | 0.49 µg/mL (≈ 1.12 µM) | COc1cc(OC)cc(N2CCN(C(=S)Nc3cc4ccccc4nc3OC)CC2)c1 [Example 109, 1-[(2-Methoxyquinolin-3-yl)aminothiocarbonyl]-4-(3,5-dimethoxyphenyl)piperazine] |  | 
0.52 µg/mL (≈ 1.28 µM) | 1.06 µg/mL (≈ 2.61 µM) | 0.97 µg/mL (≈ 2.39 µM) | 0.81 µg/mL (≈ 1.99 µM) | 0.69 µg/mL (≈ 1.7 µM) | COc1nc2ccccc2cc1NC(=S)N1CCN(c2cc(C)cc(C)c2)CC1 [Example 110, 1[(2-Methoxyquinolin-3-yl)aminothiocarbonyl]-4-(3,5-dimethylphenyl)piperazine] |  | 

Source: patent US6028195A, “Piperazine derivatives and process for the preparation thereof” (Samjin Pharmaceutical Co., Ltd., priority 1996, dated 2000)
